{
  "source": "patent US5962504A",
  "about": "“Substituted 2-pyrrolidinone activators of PKC” (Georgetown University, priority 1998, dated 1999)",
  "key": {"[1]": {"target": "PKC", "experiment": "ability of representative compounds to activate PKC (Ki, Table 1; procedure similar to Kozikowski et al. J. Med. Chem. 1997)", "type": "binding", "conditions": "read-out: Ki ± SEM"}, "[2]": {"system": "PKC", "conditions": "background statement; cited from earlier work"}},
  "data": [
    {"smiles": "CC(C)[C@H]1C(=O)N[C@H](CO)[C@@H]1c1ccccc1", "note": "[Compound 4a, (3R, 4S, 5S)-3-Isopropyl-4-phenyl-5-(hydroxymethyl)pyrrolidin-2-one]", "values": [
      {"measurement": "Ki", "setting": "[1]", "value": 129, "unit": "µM"}
    ]},
    {"smiles": "CCCCCCCCCc1ccc([C@@H]2[C@@H](C(C)C)C(=O)N[C@@H]2CO)cc1", "note": "[Compound 4b, (3R, 4S, 5S)-3-Isopropyl-4-(4-nonylphenyl)-5-(hydroxymethyl)-pyrrolidin-2-one]", "values": [
      {"measurement": "Ki", "setting": "[1]", "value": "2.3 ± 0.2", "unit": "µM"}
    ]},
    {"smiles": "CC(C)[C@H]1C(=O)N[C@H](CO)[C@@H]1c1cccc2ccccc12", "note": "[Compound 11a, (3R,4S,5S)-3-Isopropyl-4-(1-naphthyl)-5-(hydroxymethyl)pyrrolidin-2-one]", "values": [
      {"measurement": "Ki", "setting": "[1]", "value": 5.5, "unit": "µM"}
    ]},
    {"smiles": "CCCCCC(=O)Oc1ccc([C@@H]2[C@@H](C(C)C)C(=O)N[C@@H]2CO)c2ccccc12", "note": "[Compound 11b, (3R,4S,5S)-3-Isopropyl-4-(4-hexanoyloxynaphth-1-yl)-5-(hydroxymethyl)pyrrolidin-2-one]", "values": [
      {"measurement": "Ki", "setting": "[1]", "value": "0.5 ± 0.04", "unit": "µM"}
    ]},
    {"smiles": "CC1=C[C@H]2[C@@]3(O)[C@H](C)C[C@]4(OC(=O)Cc5ccccc5)[C@H]([C@@H]3C=C(CO)C[C@]2(O)C1=O)C4(C)C", "note": "[Dpp, 12-deoxyphorbol 13-phenylacetate]", "values": [
      {"measurement": "PKC activation, isozyme selectivity", "setting": "[2]", "value": "isozyme-selective activators of PKC"}
    ]}
  ]
}
